Key:
SCN explants = assay: Ex vivo circadian period, SCN explants of Per2::Luc knock-in mice; set-up: species or system mouse; conditions: 18 µM
Procedure: Next, we applied the light-dependent period control to the tissue level using explants of Per2::Luc knock-in reporter mice. The mice express PER2-luciferase fusion protein under control of the endogenous Per2 promoter. […] The spleen explants were treated with thermally adapted trans-9, then irradiated with green light (λmax = 530 nm) or kept in dark, and luminescence rhythms were measured (Fig. 6a, b). […] In addition to the peripheral clock in spleen, we investigated the effect of compound 9 on the central clock in the hypothalamic suprachiasmatic nucleus (SCN) that controls behavioral rhythms. […]
Fig. 6 Ex vivo photo-modulation of the circadian period in mouse tissue explants. a–c The spleen explants of the Per2::Luc knock-in reporter mice were applied with 12 µM compound 9 and irradiated with green light (λmax = 530 nm) for 0 min (dark, black) or 30 min (green). Luminescence rhythms were then monitored and shown in a (mean of n = 5 for dark and n = 6 for green light). […] Luminescence is given in arbitrary units. n = 5 biologically independent samples for dark and n = 6 for green light. […] Luminescence rhythms of a representative sample for each condition are shown in d. […]
To harvest the suprachiasmatic nucleus (SCN), Per2::Luc heterozygote neonatal mice at postnatal day four to seven were euthanized. […] Circadian period was calculated by a cosine curve fitting. […]

U2OS cells = assay: Circadian period assay in Bmal1-dLuc U2OS reporter cells; format: cell-based, human
Procedure: Next, we tested if the observed light-dependent CKIα inhibition translates into photomodulation of the circadian period in human U2OS cells (Fig. 2d). The Bmal1-dLuc reporter cell line contains the coding sequence of destabilized luciferase driven by the Bmal1 gene promoter sequence. The cell culture medium for luminescence recording includes a high concentration of luciferin (0.2 mM), a substrate for luciferase, which strongly absorbs UV light (Supplementary Fig. 30). […] As the circadian period change is directly correlated with the potency and concentration of the inhibitor[10], the cells were treated with photoswitchable modulators using a broad range of concentrations.
In comparison to the kinase assay, the direct use of UV light for preventing a thermal back-isomerization of the cis-isomer was not feasible due to the cell-damaging effect and the presence of luciferin in the medium. Therefore, the modulators were kept in the dark or photo-isomerized in DMSO prior to the addition, without further irradiation during the circadian assay. All three modulators lengthened the period in the U2OS cells both in the dark and upon irradiation (Fig. 2d). […] Altogether, based on the efficient generation of the cis-isomer under irradiation, retained potency and promising light-modulation of CKIα inhibition, the meta-substituted modulator 4 was identified as representing lead substitution pattern for further investigation.
Stable U2OS reporter cells harboring Bmal1-dLuc reporter were suspended in phenol red-free culture medium [DMEM (D2902, Sigma) supplemented with 10% fetal bovine serum, 3.5 mg/mL D-glucose, 3.7 mg/mL sodium bicarbonate, 0.29 mg/mL L-glutamine, 100 units/mL penicillin, and 100 µg/mL streptomycin] and plated onto a white, solid-bottom 384-well plates at 30 µL (3000 cells) per well. After 2 days, 40 µL of phenol red-free explant medium [DMEM (D2902, Sigma) supplemented with 2% B27 (Gibco), 10 mM HEPES, 3.5 mg/mL D-glucose, 0.38 mg/mL sodium bicarbonate, 0.29 mg/mL L-glutamine, 100 units/mL penicillin, 100 µg/mL streptomycin, and 0.2 mM luciferin; pH 7.2] was dispensed into each well, followed by the application of 0.5 μL of compounds (dissolved in DMSO; final 0.7% DMSO; pre-irradiated with UV for 60 min, white LED for 10 min, and/or green LED for 60 min when indicated). The plate was covered with an optically clear film, and subjected to irradiation with 530 nm LED lamp (3 × 550 mW, λmax = 530 nm, FWHM 36 nm, Sahlmann Photochemical Solutions) or 400 nm LED lamp (3 × 1000 mW, λmax = 400 nm, FWHM 11.9 nm, Sahlmann Photochemical Solutions) from 12 cm distance for 30 min. Compound handling and irradiation were conducted in a dark room under red lamp illumination. Luminescence was recorded every 100 min in a microplate reader, Infinite M200Pro (Tecan). For the phase control experiments, cellular light irradiation was performed in a dark 32 °C room and luminescence was recorded in a microplate reader Synergy H1 (BioTek) placed in the same room, to avoid possible effect of transient temperature change on the phase. Circadian period and phase were determined from luminescence rhythms by a curve fitting program MultiCycle (Actimetrics). Data from the first day was excluded from analysis, because of transient changes in luminescence upon medium change. Statistical significance was evaluated using two-way analysis of variance (ANOVA) followed by a Sidak’s multiple comparisons test or one-way ANOVA followed by a Tukey’s multiple comparisons test using Prism software (GraphPad Software).

SMILES	period effect of thermally adapted compound (SCN explants; applied on day 4)	period effect upon green light irradiation (SCN explants; green light on day 8)	period change, first 3 days, kept in dark (U2OS cells; 8 μM (Fig. 5b)) [h]	period lengthening, dark treatment of green-irradiated cells, additional 3 days (U2OS cells; 8 μM (Fig. 5b)) [h]	period lengthening, violet light treatment of dark-kept cells (U2OS cells; 8 μM (Fig. 5b)) [h]	period lengthening after violet light on the third day of green-irradiated cells (U2OS cells; 8 μM, 400 nm in situ (Fig. 5b)) [h]	period lengthening, three additional days after green light irradiation (U2OS cells; 8 μM, green light 530 nm in cellulo after 3 days (Fig. 5a)) [h]	period change after photoisomerization with green light in vitro (U2OS cells; 8 µM, green light 530 nm pre-incubation (Fig. 4e)) [h]	period change, first 3 days, green light-irradiated cells (U2OS cells; 8 μM, green light in cellulo at start (Fig. 5b)) [h]	period lengthening after green light in vitro and violet light in cellulo (U2OS cells; 8 µM, in situ back-photoisomerization 400 nm (Fig. 4e)) [h]	period lengthening vs DMSO, three additional days, non-irradiated (U2OS cells; 8 μM, kept dark (Fig. 5a)) [h]	period lengthening, trans-isomer (dark) (U2OS cells; 8 µM, thermally adapted, dark (Fig. 4e)) [h]	period change, first 3 days in the dark (U2OS cells; 8 μM, trans-9 applied (Fig. 5a)) [h]	effect of violet light only on dark samples on the circadian period activity (U2OS cells; violet light 400 nm in cellulo (Fig. 4e))	effect of UV light irradiation on period lengthening (U2OS cells; UV (365 nm) pre-irradiated)	recovery of biological activity upon back-isomerization with white light (U2OS cells; UV light followed by white light)	period lengthening effect under dark conditions (U2OS cells; dark)
CC(C)n1cnc2c(NCc3ccc(F)c(/N=N/c4c(F)cccc4F)c3F)ncnc21 [Compound 9]	induced period lengthening	reduced	7	5	8	8	2	1	2	4	10	4	5	no effect	–	–	–
Cc1nn(C)c(C)c1/N=N/c1cccc(CNc2ncnc3c2ncn3C(C)C)c1 [Compound 8]	–	–	–	–	–	–	–	–	–	–	–	–	–	–	suppressed by UV light irradiation	full recovery	strong period lengthening effect
